The source of these data is article PMC6019379, “RecA-like domain 2 of DNA-dependent ATPase A domain, a SWI2/SNF2 protein, mediates conformational integrity and ATP hydrolysis” (Bioscience Reports, 2018).

Assay type in all cases: binding
In experiment [1] the target is T1, ADAAD (Active DNA-dependent ATPase A domain) (Bos taurus, UniProt Q9TTA5, D811H/H549D).
T1 construct: gene SMARCAL1; ATPase domain fragment of bovine SMARCAL1 (RecA-like domains 1 and 2), plasmid pCP101 (pET-14b, NdeI/XhoI), E. coli BL21(DE3), Ni-NTA then DEAE-sepharose; tag removal not mentioned
Briefly: intrinsic tryptophan fluorescence titration (ex […] nm, em […] nm), one-site fit.

Experiment [2] addresses T2, ADAAD (Active DNA-dependent ATPase A domain) (Bos taurus, UniProt Q9TTA5, H814A).
T2 construct: gene SMARCAL1; ATPase domain fragment of bovine SMARCAL1 (RecA-like domains 1 and 2), plasmid pCP101 (pET-14b, NdeI/XhoI), E. coli BL21(DE3), Ni-NTA then DEAE-sepharose; tag removal not mentioned
The experiment is described as above.

In experiment [3] the target is T3, ADAAD (Active DNA-dependent ATPase A domain) (Bos taurus, UniProt Q9TTA5, R815A).
T3 construct: gene SMARCAL1; ATPase domain fragment of bovine SMARCAL1 (RecA-like domains 1 and 2), plasmid pCP101 (pET-14b, NdeI/XhoI), E. coli BL21(DE3), Ni-NTA then DEAE-sepharose; tag removal not mentioned
The experiment is described as above.

Experiment [4] deals with T4, ADAAD (Active DNA-dependent ATPase A domain) (Bos taurus, UniProt Q9TTA5, S778A).
T4 construct: gene SMARCAL1; ATPase domain fragment of bovine SMARCAL1 (RecA-like domains 1 and 2), plasmid pCP101 (pET-14b, NdeI/XhoI), E. coli BL21(DE3), Ni-NTA then DEAE-sepharose; tag removal not mentioned
The description is as above.

The target of experiment [5] is T5, ADAAD (Active DNA-dependent ATPase A domain) (Bos taurus, UniProt Q9TTA5, F727A/R812A).
T5 construct: gene SMARCAL1; ATPase domain fragment of bovine SMARCAL1 (RecA-like domains 1 and 2), plasmid pCP101 (pET-14b, NdeI/XhoI), E. coli BL21(DE3), Ni-NTA then DEAE-sepharose; tag removal not mentioned
The experiment is described as above.

Experiment [6] concerns the target T6, ADAAD (Active DNA-dependent ATPase A domain) (Bos taurus, UniProt Q9TTA5).
T6 construct: gene SMARCAL1; ATPase domain fragment of bovine SMARCAL1 (RecA-like domains 1 and 2), plasmid pCP101 (pET-14b, NdeI/XhoI), E. coli BL21(DE3), Ni-NTA then DEAE-sepharose; tag removal not mentioned
Briefly: intrinsic tryptophan fluorescence titration (ex […] nm, em […] nm). The following applies: representative spectra only.

For experiment [7], the target named is T7, ADAAD (Active DNA-dependent ATPase A domain) (Bos taurus, UniProt Q9TTA5, R815H).
T7 construct: gene SMARCAL1; ATPase domain fragment of bovine SMARCAL1 (RecA-like domains 1 and 2), plasmid pCP101 (pET-14b, NdeI/XhoI), E. coli BL21(DE3), Ni-NTA then DEAE-sepharose; tag removal not mentioned
The experiment is described as follows: intrinsic tryptophan fluorescence titration (ex […] nm, em […] nm), one-site fit.

Experiment [8] deals with T8, ADAAD (Active DNA-dependent ATPase A domain) (Bos taurus, UniProt Q9TTA5, R812A).
T8 construct: gene SMARCAL1; ATPase domain fragment of bovine SMARCAL1 (RecA-like domains 1 and 2), plasmid pCP101 (pET-14b, NdeI/XhoI), E. coli BL21(DE3), Ni-NTA then DEAE-sepharose; tag removal not mentioned
The description is as above.

Experiment [9] addresses T9, ADAAD (Active DNA-dependent ATPase A domain) (Bos taurus, UniProt Q9TTA5, D811H).
T9 construct: gene SMARCAL1; ATPase domain fragment of bovine SMARCAL1 (RecA-like domains 1 and 2), plasmid pCP101 (pET-14b, NdeI/XhoI), E. coli BL21(DE3), Ni-NTA then DEAE-sepharose; tag removal not mentioned
Described as above.

The target in experiment [10] is T10, ADAAD (Active DNA-dependent ATPase A domain) (Bos taurus, UniProt Q9TTA5, R815K).
T10 construct: gene SMARCAL1; ATPase domain fragment of bovine SMARCAL1 (RecA-like domains 1 and 2), plasmid pCP101 (pET-14b, NdeI/XhoI), E. coli BL21(DE3), Ni-NTA then DEAE-sepharose; tag removal not mentioned
The description is as above.

Experiment [11] concerns the target T11, ADAAD (Active DNA-dependent ATPase A domain) (Bos taurus, UniProt Q9TTA5, F727W).
T11 construct: gene SMARCAL1; ATPase domain fragment of bovine SMARCAL1 (RecA-like domains 1 and 2), plasmid pCP101 (pET-14b, NdeI/XhoI), E. coli BL21(DE3), Ni-NTA then DEAE-sepharose; tag removal not mentioned
The description is as above.

In experiment [12] the target is T12, ADAAD (Active DNA-dependent ATPase A domain) (Bos taurus, UniProt Q9TTA5, F727A).
T12 construct: gene SMARCAL1; ATPase domain fragment of bovine SMARCAL1 (RecA-like domains 1 and 2), plasmid pCP101 (pET-14b, NdeI/XhoI), E. coli BL21(DE3), Ni-NTA then DEAE-sepharose; tag removal not mentioned
The experiment is described as above.

The target in experiment [13] is T13, ADAAD (Active DNA-dependent ATPase A domain) (Bos taurus, UniProt Q9TTA5, T780A).
T13 construct: gene SMARCAL1; ATPase domain fragment of bovine SMARCAL1 (RecA-like domains 1 and 2), plasmid pCP101 (pET-14b, NdeI/XhoI), E. coli BL21(DE3), Ni-NTA then DEAE-sepharose; tag removal not mentioned
Described as above.

Structures are written as SMILES. pKd: −log10 of the molar value.

T7 sequence (Q9TTA5 221-940 R815H limits assumed): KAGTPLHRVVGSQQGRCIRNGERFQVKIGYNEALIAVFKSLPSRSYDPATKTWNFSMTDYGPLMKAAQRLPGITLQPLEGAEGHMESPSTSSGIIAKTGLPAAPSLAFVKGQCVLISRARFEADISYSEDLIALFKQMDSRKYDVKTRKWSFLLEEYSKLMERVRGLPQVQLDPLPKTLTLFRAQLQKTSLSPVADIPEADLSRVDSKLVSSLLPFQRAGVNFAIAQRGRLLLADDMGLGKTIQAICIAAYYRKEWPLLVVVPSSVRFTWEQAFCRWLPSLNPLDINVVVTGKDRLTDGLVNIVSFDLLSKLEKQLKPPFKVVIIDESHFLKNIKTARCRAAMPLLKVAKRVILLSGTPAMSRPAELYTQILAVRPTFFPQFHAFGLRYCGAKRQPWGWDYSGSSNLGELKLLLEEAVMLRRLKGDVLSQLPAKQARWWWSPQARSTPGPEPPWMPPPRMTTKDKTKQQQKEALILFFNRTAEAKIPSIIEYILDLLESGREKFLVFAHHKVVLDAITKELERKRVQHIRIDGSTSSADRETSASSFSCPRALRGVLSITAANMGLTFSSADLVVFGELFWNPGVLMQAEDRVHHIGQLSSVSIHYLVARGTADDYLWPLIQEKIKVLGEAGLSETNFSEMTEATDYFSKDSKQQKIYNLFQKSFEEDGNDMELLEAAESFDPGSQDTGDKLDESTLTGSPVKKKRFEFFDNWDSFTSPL
T1 sequence (Q9TTA5 221-940 H549D/D811H limits assumed): as the sequence (Q9TTA5 221-940 R815H limits assumed) above, with H329D, D591H, H595R counted along it
T2 sequence (Q9TTA5 221-940 H814A limits assumed): as the sequence (Q9TTA5 221-940 R815H limits assumed) above, with H594A, H595R counted along it
T5 sequence (Q9TTA5 221-940 F727A/R812A limits assumed): as the sequence (Q9TTA5 221-940 R815H limits assumed) above, with F507A, R592A, H595R counted along it
T10 sequence (Q9TTA5 221-940 R815K limits assumed): as the sequence (Q9TTA5 221-940 R815H limits assumed) above, with H595K counted along it
T13 sequence (Q9TTA5 221-940 T780A limits assumed): as the sequence (Q9TTA5 221-940 R815H limits assumed) above, with T560A, H595R counted along it
T11 sequence (Q9TTA5 221-940 F727W limits assumed): as the sequence (Q9TTA5 221-940 R815H limits assumed) above, with F507W, H595R counted along it
T12 sequence (Q9TTA5 221-940 F727A limits assumed): as the sequence (Q9TTA5 221-940 R815H limits assumed) above, with F507A, H595R counted along it
T6 sequence (Q9TTA5 221-940 limits assumed): as the sequence (Q9TTA5 221-940 R815H limits assumed) above, with H595R counted along it
T9 sequence (Q9TTA5 221-940 D811H limits assumed): as the sequence (Q9TTA5 221-940 R815H limits assumed) above, with D591H, H595R counted along it
T8 sequence (Q9TTA5 221-940 R812A limits assumed): as the sequence (Q9TTA5 221-940 R815H limits assumed) above, with R592A, H595R counted along it
T4 sequence (Q9TTA5 221-940 S778A limits assumed): as the sequence (Q9TTA5 221-940 R815H limits assumed) above, with S558A, H595R counted along it
T3 sequence (Q9TTA5 221-940 R815A limits assumed): as the sequence (Q9TTA5 221-940 R815H limits assumed) above, with H595A counted along it

The pKd is the negative decadic logarithm of the Kd, by convention in mol/L. For the compound `Nc1ncnc2c1ncn2[C@@H]1O[C@H](COP(=O)(O)OP(=O)(O)OP(=O)(O)O)[C@@H](O)[C@H]1O` [ATP], the pKd in experiment [1] is 5.55; in experiment [2], 5.80; in experiment [3] it was 5.92; in experiment [4], 5.72; in experiment [5], 5.77; in [7], 5.89. Besides, the pKd is 5.80 in experiment [8]; 5.49 in experiment [9]; 5.92 in [10]; 6.00 in experiment [11]; 5.80 in [12]; 6.00 in experiment [13]. Besides, the “intrinsic tryptophan fluorescence titration (ex 295 nm, em 340 nm)” value in [6] was “Representative fluorescence spectra of ADAAD titrated with (A). ATP; (B) DNA”.
